Measured values from patent US10626094B2 (La Jolla Institute of Allergy & Immunology, priority 2014, dated 2020).
Like-named read-outs stand apart in the source and are kept apart here.

How the values were obtained:
[1] = plasma stability, human plasma; type: in vitro ADME
From the text: (§1) Plasma stability is a measure of the stability of small molecules and peptides in plasma and is an important parameter, which can strongly influence the in vivo efficacy of a test compound. Drug candidates are exposed to enzymatic processes (proteinases. esterases) in plasma, and they can undergo intramolecular rearrangement or bind irreversibly (covalently) to proteins.

[2] = aqueous solubility (buffer pH 5.0-7.4, PBS); type: physicochemical; settings: for solubility: Pion's buffer
LMPTP [3] = biological target: T1, LMPTP (Homo sapiens (Human), UniProt P24666); experiment: mechanism of action: LMPTP activity on OMFP at increasing inhibitor concentrations (Michaelis-Menten); type: biochemical
Description: Activity of 20 nM LMPTP on OMFP substrate in the presence of increasing concentrations of ML400. Reactions were conducted at 37° C. in 50 mM Bis-Tris, pH 6.0 with 1 mM DTT and 0.01% Triton X-100. Mean±SD is shown. Lines show fitting of data to the Michaelis-Menten equation. Note decrease in both Vmax and KM with increasing inhibitor concentration.

[4] = system: obese C57BL/6 mice on HFD; experiment: IPGTT glucose tolerance in high-fat diet obese mice; type: in vivo, mouse; settings: 30 mg/kg IP daily, 4 weeks, 2 g glucose/kg
Description: Male C57BL/6 mice were maintained on HFD containing 60 kcal % fat for 3 months, followed by daily IP administration of 30 mg/kg Compound D1 or vehicle. After 4 weeks, IPGTT were performed using 2 g glucose/kg body weight. Mean±SEM is shown. *, p<0.05, Two-way ANOVA.

[5] = biological target: LMPTP-A (Low Molecular Weight Protein Tyrosine Phosphatase-A) enzyme (Homo sapiens (Human), UniProt P24666); experiment: LMPTP primary screening / LMPTP (OMFP) enzyme inhibition assay, fluorescence intensity; type: biochemical
In short: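 0.625 nM LMPTP-A with 400 μM OMFP substrate in 50 mM Bis-Tris pH 6.0, 1 mM DTT, 0.01% Triton X-100, […]. Compounds at 20 μM final. Incubated 50 min at room temperature in the dark; fluorescence intensity read.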

[6] = hepatic microsomal stability, mouse liver microsomes; type: in vitro ADME
From the text: In the course of this investigation many compounds with similar potencies in the LMPTP (OMFP) assay were found. In order to determine which compound would be the best candidate for in vivo studies, an abbreviated ADME panel was ran on these compounds, a tabulation of the most interesting data on this set of compounds is illustrated in Table 3 below. From the hepatic microsome stability data the candidate selected for in vivo studies was Compound D1.
The microsomal stability assay is commonly used to rank compounds according to their metabolic stability. This assay addresses the pharmacologic question of how long the parent compound will remain circulating in plasma within the body.

[7] = serum alanine transaminase / aspartate transaminase (liver function) in treated mice; type: in vivo, mouse; settings: treated mice vs vehicle
Description: Serum alanine transaminase or aspartate transaminase levels from mice treated with Compound D1 (ML400) or vehicle (mice shown in FIG. 10) were assessed using EnzyChrom Assay Kits from BioAssay Systems.

LMPTP [8] = biological target: T1, LMPTP; experiment: LMPTP enzyme inhibition assay with pNPP as substrate; type: biochemical; settings: n = 2; AID 743308; read-out: LMPTP Orthogonal assay IC50
[9] = serum creatinine (kidney function) in treated mice; type: in vivo, mouse; settings: treated mice vs vehicle
Description: Serum creatinine levels from mice treated with Compound D1 (ML400) or vehicle (mice shown in FIG. 9) were assessed using the QuantiChrom Creatinine Assay Kit from BioAssay Systems.

[10] = plasma stability, mouse plasma; type: in vitro ADME
From the text: as §1

[11] = rodent pharmacokinetics in male C57BL/6 mice (IV, PO, IP); type: in vivo, mouse
Description: The inventors also examined ML400 (also described herein as MLS-0472870 or Compound D1) for its rodent pharmacokinetics. The probe Compound D1 was profiled in Male C57BL/6 Mice, with n=3 for each group studied (IV, IP and PO arms). The formulation used was 1.00 mg/mL in DMSO:Tween80:Water=5:5:90, which gave a clear solution. […] Enterohepatic circulation was also observed for this compound. This compound has acceptable parameters for future in vivo studies (see Table 4 and FIG. 13).

[12] = male, C57BL/6, mouse, in vivo, iv, […]
[13] = mouse, in vivo, male C57BL/6 mice, IP, 9.69 mg/kg
[14] = mouse, in vivo, male C57BL/6 mice, PO, 29.6 mg/kg

T1 sequence (P24666 whole entry): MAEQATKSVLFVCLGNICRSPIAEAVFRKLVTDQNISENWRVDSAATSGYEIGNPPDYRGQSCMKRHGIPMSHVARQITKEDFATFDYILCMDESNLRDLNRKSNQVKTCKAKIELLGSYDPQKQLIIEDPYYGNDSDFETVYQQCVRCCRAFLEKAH
Chain of LMPTP-A (Low Molecular Weight Protein Tyrosine Phosphatase-A) enzyme (P24666 whole entry): as above

SMILES: COc1ccc(-c2cc(NCCCN3CCCCC3)c3ccccc3n2)cc1 [Compound D1, 2-(4-methoxyphenyl)-N-(3-(piperidin-1-yl)propyl)quinolin-4-amine]
- Plasma Stability % Remaining @ 3 hrs ([1]; Human plasma, 3 hrs): 89.03%
- plasma stability ([1]; human plasma): good stability
- solubility in PBS ([2]; PBS, versus aqueous buffer): comparable
- solubility ([2]; aqueous buffer, pH 5.0): > 112 µg/mL
- solubility ([2]; pH 6.2, aqueous buffer): > 112 µg/mL
- solubility ([2]; pH 7.4, aqueous buffer): > 112 µg/mL
- concentration achieved in aqueous buffer ([2]; pH range of 5.0-7.4): 18-20 ×IC50
- mechanism of action of LMPTP inhibition (LMPTP [3]; 20 nM LMPTP, OMFP substrate, 37° C., pH 6.0): uncompetitive
- effect on Vmax and KM (LMPTP [3]; increasing inhibitor concentration): lowering both Vmax and KM
- glucose tolerance (IPGTT) [4]: Improves Glucose Tolerance
- IC50 ([5]; LMPTP-A, OMFP substrate, method of Example 2, read-out: IC50): 801 to 5000 nM
- IC50 ([5]; Table 2 quinoline series, S sample (synthesized de novo), read-out: LMPTP (OMFP) (IC50)): 1680 nM
- IC50 ([5]; Table 5, n = 4, AID686962, AID743307, read-out: LMPTP IC50): 1680 ± 150 nM
- Hepatic Microsome Stability % Remaining @ 1 hr ([6]; Mouse microsomes, 1 hr): 48.75%
- microsomal stability ([6]; mouse liver microsomes after 1 hour): moderate stability
- liver function (serum alanine transaminase or aspartate transaminase) [7]: does not Affect Liver Function
- IC50 (LMPTP [8]): 3.52 ± 0.33 µM
- kidney function (serum creatinine) [9]: does not Affect Kidney Function
- Plasma Stability % Remaining @ 3 hrs ([10]; Mouse plasma, 3 hrs): 68.97%
- plasma stability ([10]; mouse plasma): good stability
- enterohepatic circulation ([11]; male C57BL/6 mice): observed
- Cl (mL/min/kg) ([11]; male C57BL/6 mice, IV, […]): Low clearance
- Vdss (L/kg) ([11]; male C57BL/6 mice, IV, […]): large volume of distribution
- clearance [11, 12]: 25.8 mL/min/kg
- half-life [11, 12]: 2380 min
- Vd ([11]; male, C57BL/6, mouse, in vivo, iv, […], read-out: Vdss): 83.1 L/kg
- AUC(0-inf) [11, 13]: 4520 ng·h/mL
- Cmax [11, 13]: 365 ng/mL
- Tmax [11, 13]: 0.33 h
- half-life [11, 13]: 1950 min
- AUC(0-inf) [11, 14]: 6380 ng·h/mL
- Cmax [11, 14]: 3210 ng/mL
- Tmax [11, 14]: 3.33 h
- half-life [11, 14]: 1750 min
